According to patent US4414207A, “Rutin poly(H-)sulfate salts and related compounds” (American Cyanamid Company, priority 1982, dated 1983):

Key:
[1] = system: shunt pathway activated by cobra venom factor; experiment: Test Code 036 (C-Shunt inhibitor); format: cell-based; conditions: fragile human erythrocytes in autologous serum
Description: (§1) An active inhibitor protects C2 from C1 and C4; (ii) Test Code 035 (C3-C9 inhibitor)--This test determines the ability of the late components of human complement (C3-C9) to lyse EAC 142 in the presence of appropriate dilutions of the test compound. An active inhibitor protects EAC 142 from lysis by human C3-C9; (iii) Test Code 036 (C-Shunt inhibitor)--In this test human erythrocytes rendered fragile are lysed in autologous serum via the shunt pathway activated by cobra venom factor in the presence of appropriate dilutions of the test compound. Inhibition of the shunt pathway results in failure of lysis; (iv) Forssman Vasculitis Test--Here, the well known complement dependent lesions, Forssman vasculitis, is produced in guinea pigs by intradermal injection of rabbit anti-Forssman antiserum. The lesion is measured in terms of diameter, edema and hemorrhage and the extent to which a combined index of these is inhibited by prior intraperitoneal injection of the test compound at 200 mg/kg is then reported, unless otherwise stated; (v) Forssman Shock Test--Lethal shock is produced in guinea pigs by an i.v. injection of anti-Forssman antiserum and the harmonic mean death time of treated guinea pigs is compared with that of simultaneous controls; (vi) Complement Level Reduction Test--In this test, the above dosed guinea pigs, or others, are bled for serum and the complement level is determined in undiluted serum by the capillary tube method of U.S. Pat. No. 3,876,376 and compared to undosed control guinea pigs; and (vii) Cap 50 Test--Here, appropriate amounts of the test compound are added to a pool of guinea pig serum in vitro, after which the undiluted serum capillary tube assay referred to above is run. The concentration of compound inhibiting 50% is reported, (viii) Guinea Pig Intraperitoneal Test (GPIP)--Guinea Pigs weighing about 300 g. are dosed intraperitoneally (i.p.) with 200 mg/kg of the test compound dissolved in saline and adjusted to pH 7-8. […] Percent inhibition are calculated by comparison with simultaneous controls. […]

activated human C1 = target: T1, activated human C1 (Homo sapiens, UniProt P09871); experiment: Test Code 026 (C1 inhibitor); format: biochemical; conditions: serial dilution assay, twofold dilutions; higher well number indicates higher activity
T1 sequence (P09871 438-688 limits assumed): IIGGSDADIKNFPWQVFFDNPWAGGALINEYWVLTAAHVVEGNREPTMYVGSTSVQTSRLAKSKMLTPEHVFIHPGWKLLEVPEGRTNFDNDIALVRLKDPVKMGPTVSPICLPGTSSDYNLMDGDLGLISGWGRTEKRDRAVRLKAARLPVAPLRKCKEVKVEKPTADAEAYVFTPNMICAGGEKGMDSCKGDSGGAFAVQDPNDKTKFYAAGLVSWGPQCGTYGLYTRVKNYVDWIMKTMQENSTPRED
T1 sequence (P09871 16-437 limits assumed): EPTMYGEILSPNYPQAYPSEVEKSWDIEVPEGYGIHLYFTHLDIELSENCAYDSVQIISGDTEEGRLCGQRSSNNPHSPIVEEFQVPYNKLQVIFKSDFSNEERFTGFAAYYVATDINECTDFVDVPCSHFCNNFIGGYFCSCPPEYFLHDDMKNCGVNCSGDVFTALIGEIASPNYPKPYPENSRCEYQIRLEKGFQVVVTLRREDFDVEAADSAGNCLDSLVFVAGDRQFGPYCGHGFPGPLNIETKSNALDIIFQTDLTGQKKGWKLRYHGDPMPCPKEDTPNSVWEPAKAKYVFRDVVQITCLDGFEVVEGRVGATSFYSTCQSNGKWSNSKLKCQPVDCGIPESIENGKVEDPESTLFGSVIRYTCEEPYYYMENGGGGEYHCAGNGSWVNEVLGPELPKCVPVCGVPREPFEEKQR
Description: as §1

[2] = system: late components of human complement (C3-C9); experiment: Test Code 035 (C3-C9 inhibitor); format: biochemical; conditions: lysis of EAC 142 by human C3-C9
Description: as §1

[3] = system: complement activity of sera; experiment: Guinea Pig Intraperitoneal Test (GPIP); format: in vivo; conditions: 200 mg/kg i.p.
Description: as §1

guinea pigs = experiment: Forssman Shock Test; format: in vivo, guinea pig; conditions: i.v. anti-Forssman antiserum, Control 3.3
Description: (§2) An active inhibitor protects C2 from C1 and C4; (ii) Test Code 035 (C3-C9 inhibitor)--This test determines the ability of the late components of human complement (C3-C9) to lyse EAC 142 in the presence of appropriate dilutions of the test compound. An active inhibitor protects EAC 142 from lysis by human C3-C9; (iii) Test Code 036 (C-Shunt inhibitor)--In this test human erythrocytes rendered fragile are lysed in autologous serum via the shunt pathway activated by cobra venom factor in the presence of appropriate dilutions of the test compound. Inhibition of the shunt pathway results in failure of lysis; (iv) Forssman Vasculitis Test--Here, the well known complement dependent lesions, Forssman vasculitis, is produced in guinea pigs by intradermal injection of rabbit anti-Forssman antiserum. […] Percent inhibition are calculated by comparison with simultaneous controls. […]

complement = complement inhibiting activity using the tests disclosed herein; conditions: stated in words
Description: as §2

Molecule | 036 (C-Shunt inhibitor) [1] | 026 (C1 inhibitor), activity in wells (activated human C1) | 035 (C3-C9 inhibitor) [2] | In vivo activity (Guinea Pig) Intraperitoneal % Inhibition, 30 minutes ([3]; serum complement 30 minutes after injection) | In vivo activity (Guinea Pig) Intraperitoneal % Inhibition, 60 minutes ([3]; serum complement 60 minutes after injection) | In vivo activity (Guinea Pig) Intraperitoneal % Inhibition, 120 minutes ([3]; serum complement 120 minutes after injection) | Forssman Shock (harmonic mean death time) (guinea pigs) | complement inhibiting activity (complement)
C[C@@H]1O[C@@H](OC[C@H]2O[C@@H](Oc3c(-c4ccc(O)c(O)c4)oc4cc(O)cc(O)c4c3=O)[C@H](O)[C@@H](O)[C@@H]2O)[C@H](O)[C@H](O)[C@H]1O [Rutin] | N | N | N |  |  |  |  | 
Rutin poly(H-)sulfate, sodium salt | N | +7 wells | N | -79% | -89% | -89% | 17.2 min | 
Rutin poly(H-)sulfate, sodium salt (original source commercial `Rutin water soluble`) |  |  |  |  |  |  |  | highly active
Rutin poly(H-)sulfate, trimethylamine salt | N | +2 wells | N |  |  |  |  | 
